{"source": "patent US20220339257A1", "about": "“METHODS TO INCREASE THE SENSITIVITY AND REVERSING THE RESISTANCE TO DRUGS” (Biomarker Strategies, LLC, priority 2019, published 2022)", "assay_type_in_all_cases": "cell-based", "key": {"[1]": {"test_system": "clinical sample; HS2170 and Calu-6 cells", "assay": "HoPI assay (Hoechst 33342 and propidium iodide)", "settings": "Osimertinib in combination with EM2", "from_the_text": "(§1) A double stain of Hoechst 33342 and propidium iodide allows for the determination of cell viability with high specificity and low background noise, as compared to trypan blue staining. Hoechst 33342 is a cell permeable blue fluorescent nuclear stain which will stain all cell types. Propidium iodide is a cell impermeable red fluorescent nuclear stain that will only bind to the nuclei of cells with compromised membranes (dead cells). The staining can be performed rapidly on live cell suspensions within 15 minutes. 25 uL of 4× Hoechst 33342 Solution (40 ug/mL) and 25 uL of 4×Propidium Iodide Solution are added to 50 uL of cell suspension. The suspension was gently mixed 10 times and 50 uL was immediately transferred to a microfluidic cell counting chip. A 365 nm LED was used to excite both Hoechst 33342 and propidium iodide. Images of the cells were captured using a 10× objective lens on an Olympus microscope using a Canon EOS 6D camera using an ISO of 800 and an exposure of 2 seconds; both JPEG and RAW images were saved for analysis. The blue channel was used to measure the total number of cells and the red channel was used to measure the number of dead cells. Cell counting was performed automatically by the Image Pro software (Media Cybernetics, Inc)."}, "[2]": {"test_system": "clinical sample (WT EGFR tumor, patient who smoked)", "assay": "Immunocytochemistry biomarker staining of a clinical sample", "settings": "erlotinib+EM2 combination", "method": "Cells at the seeding density of 10,000 cells per well were plated in 8 chamber slides in complete RPMI culture medium for overnight. After 24h cells were treated with RPMI media without the serum along with selected dose of erlotinib+EM2 and kept for additional 72 hours in incubation condition set at 37° C. in a humidified atmosphere of 95% air and 5% CO2. The chamber slides were rinsed with PBS before performing ICC staining. An Ambay kit (Catalog #10011A) purchased from Ambay Immune Sensors and Controls, LLC (AISC) (MD, USA) was used to perform ICC staining as per the kit instructions and using poly-HRP from Biogenix (CA, USA) was used to enable signal amplification and detection of specific bound antibody targets. A respective isotype antibody control was be kept for each biomarker. Counterstaining was performed before mounting and analysis."}, "RPMI-1975": {"test_system": "RPMI-1975", "assay": "HoPI live cell staining", "settings": "24 hours", "from_the_text": "as §1\nMTA and EM effects on apoptosis were measured by Hoechst-Propidium Iodide staining (HoPI). For the assay, cells were seeded in 6-well plates at 400K cells per well, in 2 mL of 10% FBS-containing media and incubated for 24 hours. At 24 hours, a 1 nM to […] range of MTA and/or 1 ng/mL to 1 mg/mL range of EM doses was added and incubated for 24 hours. After 24 hours incubation respective cells' media was collected, added the 1× HBSS wash from the plate in the respective tube. Adherent cells were detached by treating with Accutase for 6 minutes and collected in respective tubes. All samples were centrifuged for 5 minutes at 1200 RPM. […] The area, mean intensity, standard deviation of the mean intensity, minimum intensity, maximum intensity and perimeter were measured for each cellular region in the red channel and also in the blue channel. […]"}}}
{"substance": "tumor necrosis factor-alpha [EM2]", "values": [{"measurement": "cell death (HoPI assay)", "setting": "[1]", "value": "increase in cell death"}, {"measurement": "cell apoptosis (nuclear staining of Bcl2, nuclear vacuolization)", "setting": "[2]", "value": "promoted cell apoptosis"}, {"measurement": "reduction in live cells (HoPI)", "setting": "RPMI-1975; GSK458 and TNFa in combination", "value": 68, "unit": "%"}, {"measurement": "reduction in live cells (HoPI)", "setting": "RPMI-1975; single agent", "value": 8, "unit": "%"}]}
